# Experimental data reported in US20040014738A1 (priority 2000, published 2004).
# Tests used:
# Pseudomonas aeruginosa = test: Photodynamic inactivation of Pseudomonas aeruginosa in stem cell-containing solution; type: cell-based; conditions: 25 μM sensitizer, light >600 nm, 35 mW/cm^2, about 10^5 bacteria/ml in stem cell solution (FIG. 1)
# Experimental: Photodynamic Treatment of Stem Cell-Containing Solution Contaminated with Pseudomonas
# (§1) The following parameters were measured:
# Inactivation of P. aeruginosa; and […]
# [1] = system: CD34-positive cells (stem cells); test: Viability of the stem cells after photodynamic treatment; type: cell-based; conditions: 25 μM sensitizer, illumination 1 hour, vs control (no illumination, no sensitizer) (FIG. 2)
# Experimental: as §1
# Viability of the stem cells.
# [2] = system: stem cells from umbilical cord blood
# Experimental: Stem cells were isolated from fresh umbilical cord blood using hydroxy ethylstarch (HES) sedimentation (Perutelli P. et al, Vox Sang. 76(4) pp 237-40 (1999); Adorno G. et al, Clin. Lab. Haematol. 20(6) pp 341-3 (1998)). The resulting solution contained 20*10^6 cells/ml, as determined using an automatic cell counter (Sysmex K1000, TOA Medical Electronics, Kobe, Japan).
# Stock solutions of Pseudomonas aeruginosa were added to the stem cell solution such that the volume of the spike was <10% of the total volume of the solution, and the number of bacteria was about 10^5/ml. A sensitizer, monophenyl-tri(N-methyl-4-pyridyl)porphyrin chloride (TriP(4), Mid-Century, Posen, Ill. USA), was added to a final concentration of 25 μM. The suspension were thoroughly mixed and divided into 3-ml aliquots in polystyrene culture dishes with a diameter of 6 cm (Greiner, Alphen a/d Rijn, the Netherlands), and agitated at room temperature on a horizontal reciprocal shaker (60 cycles/min, GFL, Burgwedel, Germany) for 5 min. in the dark. […] The irradiance at the cell layer was 35 mW/cm^2, as measured with an IL1400A photometer equipped with a SEL033 detector (International Light, Newburyport, Mass. USA). The following parameters were measured:
# Influence of the treatment on stem cell differentiation (as measured by cfu-e, bfu-e, cfu-m, cfu-gm, and cfu-gem). […]
compound,measurement,setting,value
"C[n+]1ccc(-c2c3nc(c(-c4cc[n+](C)cc4)c4ccc([nH]4)c(-c4cc[n+](C)cc4)c4nc(c(-c5ccccc5)c5ccc2[nH]5)C=C4)C=C3)cc1.[Cl-].[Cl-].[Cl-] [TriP(4), monophenyl-tri(N-methyl-4-pyridyl)porphyrin chloride]",Inactivation of P. aeruginosa,Pseudomonas aeruginosa,effectively killed
same,viability of CD34-positive cells (stem cells),[1],remains within the error margin for the control experiment
same,"CFU-Mk, PDT (60′)",[2],38
